Values quoted from earlier work, collected in patent publication US20050163837A1, “Rosiglitazone formulations” (priority 2003, published 2005).

What was measured:
[1] = system: animal models of type 2 diabetes

In the case of `CN(CCOc1ccc(CC2SC(=O)NC2=O)cc1)c1ccccn1` (stereo not drawn) [Rosiglitazone, 5-[4-[2-(N-methyl-N-(2-pyridyl)amino)ethoxy]benzyl]thiazolidine-2,4-dione], the “development of overt diabetes” value (mouse models of diabetes; mouse models) is given as “prevent the development of overt diabetes”, the “blood glucose levels and hyperinsulinemia” value (mouse models of diabetes; several mouse models of diabetes) is given as “reduce blood glucose levels and hyperinsulinemia” and the “induction of hypoglycemia or impaired glucose tolerance” value [1] is given as “did not induce hypoglycemia or impaired glucose tolerance”.
